Our source for the TGI and GI50 values is PubChem BioAssay (NCI).

What all share (experiment): NCI anticancer screen, dose series, 48 h
For assay [1], the system named is SK-MEL-5 melanoma.
In assay [2] the test system is HL-60(TB) leukemia.
In assay [3] the test system is HOP-92 NSCLC.
Assay [4] has as its system CAKI-1 renal.
Assay [5] deals with SK-MEL-28 melanoma.
The subject of assay [6] is UACC-257 melanoma.
Assay [7] deals with KM12 colon.
The test system of assay [8] is DU-145 prostate.

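Compound exposure: 48 hours, 5 concentrations, 96-well plates. GI50 is the concentration that inhibits growth by half. TGI denotes the concentration required for complete inhibition of growth.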 Bounds are passed on as bounds.

Take `NC(N)=NC(N)=Nc1ccc(S(N)(=O)=O)cc1`: the TGI in assay [1], in assay [2], in assay [3], in assay [4], in assay [5] and in assay [6] was above 100 µM each time. For the same molecule, the TGI in assay [7] and in assay [8] was above 100 µM each time.
As for `C=C(C)[C@@H]1CC[C@]2(CN)CC[C@]3(C)[C@H](CC[C@@H]4[C@@]5(C)CCC(N)[C@@](C)(CO)[C@@H]5CC[C@]43C)[C@@H]12` (stereo partly specified), the GI50 is 1.72 µM in assay [1]; 1.29 µM in assay [2]; 1.42 µM in assay [3]; 1.76 µM in assay [4]; 1.9 µM in assay [5]; 1.77 µM in assay [6]. Besides, the GI50 was 1.79 µM in assay [7] and 1.66 µM in assay [8]. Moreover, the TGI in assay [1] is 3.16 µM; in assay [2], 2.97 µM; in assay [3], 2.81 µM; in assay [4], 3.2 µM; in assay [5], 3.37 µM; in assay [6], 3.24 µM. Moreover, the figures for the TGI in assay [7] and in assay [8] were 3.37 µM and 3.17 µM, respectively.
`Cc1cc(C)c(O)c(CNCCCNCc2cc(C)cc(C)c2O)c1`: the GI50 in assay [1] is 1.57 µM; in assay [2] it was 2.33 µM; in assay [3] it was 1.94 µM; in assay [4], 5.45 µM; in assay [5], 1.65 µM; in assay [6] it was 2.14 µM. Besides, the GI50 in assay [7] is 2.58 µM; in assay [8] it was 5.19 µM. Besides, the TGI came to 2.93 µM in assay [1]; 4.75 µM in assay [2]; 7.23 µM in assay [3]; 18.7 µM in assay [4]; 3.19 µM in assay [5]; 4.08 µM in assay [6]. Also, the TGI was 7.24 µM in assay [7] and 17.7 µM in assay [8].
For `CN[C@H]1CC[C@]23C[C@]24CC[C@]2(C)[C@@H]([C@H](C)N(C)C)CC[C@@]2(C)[C@@H]4CC[C@H]3C1(C)C`, the TGI in assay [1] was found to be 29.4 µM; in assay [2], 36.3 µM; in assay [3], 26 µM; in assay [4], 45.9 µM; in assay [5], 25.8 µM; in assay [6], 32.8 µM. Moreover, the TGI is 31.8 µM in assay [7] and 28.4 µM in assay [8].
`N#CC(C(=O)O)C(c1c(Cl)cccc1Cl)C(C#N)C(=O)O` (stereo unspecified): the TGI in assay [1], in assay [2], in assay [3], in assay [4], in assay [5] and in assay [6] was above 100 µM in each case. Further, the TGI in assay [7] and in assay [8] was above 100 µM in each case.
On to `C[C@@H]1OC(=O)NN=C1c1ccc(-c2ccc(F)cc2)c(C(F)(F)F)c1`, for which the GI50 in assay [1] is 2.28 µM; in assay [2] it was 7.93 µM; in assay [3] it was 11 µM; in assay [4], 4.88 µM; in assay [5], 10.5 µM; in assay [6], 3.72 µM. Besides, the values for the GI50 in assay [7] and in assay [8] were 5.95 µM and 1.57 µM, respectively. The TGI in assay [1] was 9.01 µM; in assay [2], above 100 µM; in assay [3], 25.9 µM; in assay [4] it was 18.7 µM; in assay [5] it was 22.6 µM; in assay [6], 19.2 µM. The TGI in assay [7] worked out at 19.5 µM; in assay [8] it was 20.7 µM.
Take `O=C1CCC(N2C(=O)c3cccc(NCCOCCOCCNC(=O)c4cc5c(o4)C(=O)c4ccccc4C5=O)c3C2=O)C(=O)N1` (stereo unspecified): the GI50 in assay [1] is 0.787 µM; in assay [2], 2.1 µM; in assay [3] it was 3.27 µM; in assay [4], 2.91 µM; in assay [5], 1.92 µM; in assay [6] it was 1.48 µM. Moreover, the GI50 was 3.19 µM in assay [7] and 1.82 µM in assay [8]. Moreover, the TGI in assay [1] is 2.07 µM; in assay [2] it was 6.82 µM; in assay [3], 12.5 µM; in assay [4], 10.1 µM; in assay [5], 3.9 µM; in assay [6], 2.85 µM. Moreover, the TGI in assay [7] stood at 10.9 µM; in assay [8], 3.25 µM.
With `COc1ccc2c(c1)c(-c1ccc(-c3cn(C)c4ccc(OC)cc34)o1)cn2C`, the GI50 in assay [1] is 10.4 µM; in assay [2], 1.98 µM; in assay [3], 1.03 µM; in assay [4], 17.1 µM; in assay [5], 14 µM; in assay [6], 27 µM. Moreover, the GI50 in assay [7] is 2.73 µM; in assay [8] it was above 100 µM. The TGI in assay [1] was 22.8 µM; in assay [2] it was 5.2 µM; in assay [3], 10.3 µM; in assay [4] it was above 100 µM; in assay [5] it was 80.1 µM; in assay [6], above 100 µM. For the same molecule, the results for the TGI in assay [7] and in assay [8] were 7.08 µM and above 100 µM, respectively.
`S=C1SCN(C2CCCCCCCCCCC2)CN1C1CCCCCCCCCCC1`: the TGI in assay [1], in assay [2], in assay [3], in assay [4], in assay [5] and in assay [6] was above 100 µM in each case. For the same molecule, the TGI in assay [7] and in assay [8] was above 100 µM in each case.
Consider `CN1CCN(Cc2ccc(NC(=O)c3cccc(C#Cc4c(N)ncc5ccc(F)cc45)c3)cc2C(F)(F)F)CC1`, for which the GI50 was 0.896 µM in assay [1]; 0.626 µM in assay [2]; 0.349 µM in assay [3]; 0.727 µM in assay [4]; 0.79 µM in assay [5]; 0.969 µM in assay [6]. For the same molecule, the GI50 was 0.121 µM in assay [7] and 0.838 µM in assay [8]. In addition, the TGI in assay [1] was determined as 1.68 µM; in assay [2], 1.88 µM; in assay [3], 1.3 µM; in assay [4], 1.43 µM; in assay [5], 1.53 µM; in assay [6], 2.11 µM. Moreover, the TGI in assay [7] came to 0.754 µM; in assay [8], 1.59 µM.
Take `O=C1c2ccccc2-c2c1c1ccc([N+](=O)[O-])cc1c(=O)n2CCCn1ccnc1`: the GI50 in assay [1] was below 0.019 µM; in assay [2], 1.09 µM; in assay [3], 2.18 µM; in assay [4] it was 0.172 µM; in assay [5] it was 0.352 µM; in assay [6] it was 0.379 µM. The GI50 in assay [7] is 0.0227 µM; in assay [8], below 0.0152 µM. Also, the TGI in assay [1] was 0.104 µM; in assay [2] it was 3.84 µM; in assay [3] it was 29.9 µM; in assay [4], 0.807 µM; in assay [5], 10.8 µM; in assay [6], 1.83 µM. Also, the TGI was 1.25 µM in assay [7] and 0.0542 µM in assay [8].
Take `CNC(=S)N(C1CCCCC1)C1CCCCC1`: the TGI in assay [1], in assay [2], in assay [3], in assay [4], in assay [5] and in assay [6] was above 100 µM throughout. Moreover, the TGI in assay [7] and in assay [8] was above 100 µM throughout.
Regarding `NC(Cc1c[nH]c2cc(F)ccc12)C(=O)O` (stereo unspecified), the GI50 in assay [1] is 557 µM; in assay [2], 951 µM; in assay [3] it was above 2500 µM; in assay [5], 1150 µM; in assay [6], 1490 µM; in assay [7], 1180 µM. Besides, in assay [8], the GI50 was 903 µM. In addition, the TGI in assay [1] is 1140 µM; in assay [2] it was above 2500 µM; in assay [3] it was above 2500 µM; in assay [4], above 2500 µM; in assay [5], above 2500 µM; in assay [6], above 2500 µM. In addition, the TGI in assay [7] and in assay [8] was above 2500 µM in each case.
With `COC1C(O)CC(OC2CC(OC3CC(O[C@@H]4C(=O)c5c(cc6cc(OC7CC(OC8CC(O)C(O)C(C)O8)C(O)C(C)O7)c(C)c(O)c6c5O)CC4[C@H](OC)[C@@H](O)C(C)=O)OC(C)C3O)OC(C)C2O)OC1C` (stereo partly specified), the GI50 is 0.00993 µM in assay [1]; 0.0236 µM in assay [2]; 0.032 µM in assay [3]; 0.749 µM in assay [4]; 0.014 µM in assay [5]; 0.0187 µM in assay [6]. In addition, the GI50 in assay [7] is 0.0124 µM; in assay [8], 0.0127 µM. The TGI was 0.0392 µM in assay [1]; 6.94 µM in assay [2]; above 33.3 µM in assay [3]; above 33.3 µM in assay [4]; 0.396 µM in assay [5]; 0.0923 µM in assay [6]. Further, the TGI in assay [7] and in assay [8] was above 33.3 µM each time.
With `COc1cc(=O)oc(/C=C/C=C/C=C/C(C)=C\C2(C)OC(C)C(C)(O)C2O)c1C` (stereo unspecified), the TGI in assay [1], in assay [2], in assay [3], in assay [4], in assay [5] and in assay [6] was above 100 µM in each case. In addition, the TGI in assay [7] and in assay [8] was above 100 µM each time.
